Consider twelve compounds from patent US10160747B2, “Compounds and methods for kinase modulation, and indications therefor” (Plexxikon Inc., priority 2016, dated 2018).

Assay [1] concerns MOLM-14 F691L (endogenous FLT3 ITD and transfected FLT3 F691L). Briefly: MOLM-14 F691L cell proliferation assay (CellTiter-Glo). Type of assay: cell-based. The following applies: Homo sapiens, MOLM-14, 72 h; 3 d growth, GMean. A digest of the protocol:
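Three-day proliferation at 37 °C/5% CO2 of FLT3-ITD MOLM-14 lines with D835Y or F691L mutation, seeded 1×10^4 per well. Compounds at eight points, top 1 μM final, 0.2% DMSO. ATP luminescence (CellTiter-Glo) gives IC50.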

Another assay has as its target T1, FLT3-D835Y (Homo sapiens, UniProt P36888, D835Y).
T1 construct: purchased Invitrogen PV3967
T1 sequence (P36888 27-993 D835Y): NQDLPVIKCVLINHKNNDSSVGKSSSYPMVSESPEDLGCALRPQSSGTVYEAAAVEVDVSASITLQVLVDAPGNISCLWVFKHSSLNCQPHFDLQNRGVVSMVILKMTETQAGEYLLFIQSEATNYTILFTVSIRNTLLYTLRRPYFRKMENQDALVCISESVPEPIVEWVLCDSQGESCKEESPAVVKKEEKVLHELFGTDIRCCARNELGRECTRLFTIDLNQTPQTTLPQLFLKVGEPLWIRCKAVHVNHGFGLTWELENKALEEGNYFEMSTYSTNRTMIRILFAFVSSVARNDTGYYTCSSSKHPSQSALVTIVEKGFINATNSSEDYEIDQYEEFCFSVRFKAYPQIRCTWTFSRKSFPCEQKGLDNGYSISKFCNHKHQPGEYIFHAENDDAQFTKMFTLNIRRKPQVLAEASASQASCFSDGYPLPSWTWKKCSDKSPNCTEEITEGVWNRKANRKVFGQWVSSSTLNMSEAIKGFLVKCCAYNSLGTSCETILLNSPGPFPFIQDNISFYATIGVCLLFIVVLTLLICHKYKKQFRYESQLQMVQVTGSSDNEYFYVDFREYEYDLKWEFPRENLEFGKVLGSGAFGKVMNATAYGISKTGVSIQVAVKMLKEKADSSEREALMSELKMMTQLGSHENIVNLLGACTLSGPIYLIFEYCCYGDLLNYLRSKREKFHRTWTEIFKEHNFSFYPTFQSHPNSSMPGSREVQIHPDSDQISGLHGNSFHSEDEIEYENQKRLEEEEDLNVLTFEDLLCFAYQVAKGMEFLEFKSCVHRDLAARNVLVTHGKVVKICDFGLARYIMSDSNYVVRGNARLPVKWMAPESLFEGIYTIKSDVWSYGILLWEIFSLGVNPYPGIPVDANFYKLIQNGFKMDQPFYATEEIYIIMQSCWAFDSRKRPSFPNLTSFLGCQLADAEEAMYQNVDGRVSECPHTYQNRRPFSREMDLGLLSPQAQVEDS
Briefly: FLT3-D835Y recombinant enzyme kinase assay (AlphaScreen). The assay is classed as biochemical. The settings on record: 8 pt, GMean. The gist of the method: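 Kinase activity of recombinant FLT3-ITD, FLT3-D835Y and c-KIT was followed via phosphotyrosine formation on a 30 nM biotin-peptide substrate, captured on streptavidin donor and anti-phosphotyrosine acceptor AlphaScreen beads. ATP was set at 10 μM for FLT3 and 100 μM for c-KIT.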
(In general: Bead proximity is the source of the signal in Alpha formats.)

By IC50 is commonly meant the concentration at which inhibition is half-maximal. In the case of `Cc1ncc(NC(=O)Cc2ccc(-c3cnc(Nc4cnn(C)c4C)nc3)cc2F)cc1C(F)(F)F` [Compound P-0076, 2-[4-[2-[(1,5-dimethylpyrazol-4-yl)amino]pyrimidin-5-yl]-2-fluoro-phenyl]-N-[6-methyl-5-(trifluoromethyl)-3-pyridyl]acetamide], the IC50 (in assay [1]; at FLT3-D835Y) was 0.0001 to 10 µM throughout.

For the compound `Cc1nn(C)cc1Nc1ncc(-c2ccc(CC(=O)Nc3cnc(C)c(C(F)(F)F)c3)c(F)c2)cn1` [Compound P-0077, 2-[4-[2-[(1,3-dimethylpyrazol-4-yl)amino]pyrimidin-5-yl]-2-fluoro-phenyl]-N-[6-methyl-5-(trifluoromethyl)-3-pyridyl]acetamide], the IC50 (in assay [1]; on FLT3-D835Y) was 0.0001 to 10 µM in each case.

Take `Cn1cnc(Nc2ncc(-c3cc(F)c(CC(=O)Nc4cncc(C(F)(F)F)c4)cc3F)cn2)c1` [Compound P-0078, 2-(2,5-difluoro-4-(2-((1-methyl-1H-imidazol-4-yl)amino)pyrimidin-5-yl)phenyl)-N-(5-(trifluoromethyl)pyridin-3-yl)acetamide]: the IC50 (in assay [1]; at FLT3-D835Y) was 0.0001 to 10 µM each time.

With `Cc1ncc(NC(=O)Cc2ccc(-c3cnc4[nH]cc(Cl)c4n3)cc2)cc1C(F)(F)F` [Compound P-0079, 2-(4-(7-chloro-5H-pyrrolo[2,3-b]pyrazin-2-yl)phenyl)-N-(6-methyl-5-(trifluoromethyl)pyridin-3-yl)acetamide], the IC50 (in assay [1]; at FLT3-D835Y) was 0.0001 to 10 µM throughout.

Take `Cn1cc(Nc2ncc(-c3ccc(CC(=O)Nc4cncc(C5CC5)c4)c(F)c3)cn2)cn1` [Compound P-0081, N-(5-cyclopropyl-3-pyridyl)-2-[2-fluoro-4-[2-[(1-methylpyrazol-4-yl)amino]pyrimidin-5-yl]phenyl]acetamide]: the IC50 (in assay [1]; at FLT3-D835Y) was 0.0001 to 10 µM throughout.

Take `Cn1cc(Nc2ncc(-c3ccc(CC(=O)Nc4cc(C(F)(F)F)ccn4)c(F)c3)cn2)cn1` [Compound P-0082, 2-[2-fluoro-4-[2-[(1-methylpyrazol-4-yl)amino]pyrimidin-5-yl]phenyl]-N-[4-(trifluoromethyl)-2-pyridyl]acetamide]: the IC50 (in assay [1]; on FLT3-D835Y) was 0.0001 to 10 µM throughout.

Consider `Cn1cc(Nc2ncc(-c3ccc(CC(=O)Nc4ccnc(C(F)(F)F)c4)c(F)c3)cn2)cn1` [Compound P-0083, 2-[2-fluoro-4-[2-[(1-methylpyrazol-4-yl)amino]pyrimidin-5-yl]phenyl]-N-[2-(trifluoromethyl)-4-pyridyl]acetamide], for which the IC50 (in assay [1]; on FLT3-D835Y) was 0.0001 to 10 µM each time.

As to `Cn1cc(Nc2ncc(-c3ccc(CC(=O)Nc4cncc(C(F)(F)F)c4)c(F)c3)cn2)cn1` [Compound P-0084, 2-[2-fluoro-4-[2-[(1-methylpyrazol-4-yl)amino]pyrimidin-5-yl]phenyl]-N-[5-(trifluoromethyl)-3-pyridyl]acetamide], the IC50 (in assay [1]; at FLT3-D835Y) was 0.0001 to 10 µM each time.

Regarding `COc1cncc(NC(=O)Cc2ccc(-c3cnc(Nc4cnn(C)c4)nc3)cc2F)c1` [Compound P-0086, 2-[2-fluoro-4-[2-[(1-methylpyrazol-4-yl)amino]pyrimidin-5-yl]phenyl]-N-(5-methoxy-3-pyridyl)acetamide], the IC50 (in assay [1]; at FLT3-D835Y) was 0.0001 to 10 µM in each case.

Consider `Cn1cc(Nc2ncc(-c3ccc(CC(=O)NCc4ccc(C(F)(F)F)nc4)c(F)c3)cn2)cn1` [Compound P-0087, 2-[2-fluoro-4-[2-[(1-methylpyrazol-4-yl)amino]pyrimidin-5-yl]phenyl]-N-[[6-(trifluoromethyl)-3-pyridyl]methyl]acetamide], for which the IC50 (in assay [1]; on FLT3-D835Y) was 0.0001 to 10 µM each time.

For `COc1ncc(NC(=O)Cc2ccc(-c3cnc(Nc4cnn(C)c4)nc3)cc2F)cc1C(F)(F)F` [Compound P-0089, 2-[2-fluoro-4-[2-[(1-methylpyrazol-4-yl)amino]pyrimidin-5-yl]phenyl]-N-[6-methoxy-5-(trifluoromethyl)-3-pyridyl]acetamide], the IC50 (in assay [1]; on FLT3-D835Y) was 0.0001 to 10 µM throughout.

Take `Cn1cc(Nc2ncc(-c3ccc(CC(=O)Nc4cncc(C(C)(F)F)c4)c(F)c3)cn2)cn1` [Compound P-0090, N-[5-(1,1-difluoroethyl)-3-pyridyl]-2-[2-fluoro-4-[2-[(1-methylpyrazol-4-yl)amino]pyrimidin-5-yl]phenyl]acetamide]: the IC50 (in assay [1]; at FLT3-D835Y) was 0.0001 to 10 µM each time.
